Source: ChEMBL document CHEMBL5724558, “Image-based profiling of drug vulnerabilities in CRC organoids” (2024)
Values joined by “and” are separate entries in the source; they are usually repeats but may differ in a detail not shown here. Identical values can stand only once.

Key:
Type in all cases: functional, Homo sapiens
Set-up in all cases: dose or concentration left out as unconfirmed
Colon cancer organoid [1] = assay: (§1) Image-based profiling of donated chemical probes and chemogenomic kinase set in O09 CRC organoid. Image analysis is performed on the sum area metric, and the data were normalized to the DMSO control. After imaging the organoid viability is measured using the OneGloEX Luciferase Assay System. The normalized viability data and sum area are reported.
Colon cancer organoid [2] = assay: as §1, with “O21” for “O09”
Colon cancer organoid [3] = assay: as §1, with “O06” for “O09”

Row | Compound | Cell Viability (Colon cancer organoid [1]; Replication number 1) | Cell Viability (Colon cancer organoid [1]; Replication number 2) | Cell Viability (Colon cancer organoid [2]; Replication number 1) | Cell Viability (Colon cancer organoid [2]; Replication number 2) | Cell Viability (Colon cancer organoid [3]; Replication number 1) | Cell Viability (Colon cancer organoid [3]; Replication number 2)
1 | CC(C)(C)c1cc(NC(=O)Nc2ccc(-c3cn4c(n3)sc3cc(OCCN5CCOCC5)ccc34)cc2)no1 [QUIZARTINIB] | 85.316% and 55.6023% | 92.2589% and 77.476% | 67.5016% and 73.0314% | 71.418% and 77.7258% | 39.693% and 48.7411% | 34.5672% and 63.5476%
2 | COc1cc(-c2cn([C@H]3CCc4c(F)cccc4N(CC(F)(F)F)C3=O)nn2)ccc1-n1cnc(C)c1 | 81.2479% and 97.2392% | 40.0152% and 77.6926% | 110.846% and 137.969% | 98.2534% and 104.592% | 98.6748% and 98.829% | 105.811% and 104.708%
3 | CCc1cc(Nc2nccc(-c3c(-c4ccc(OC)c(C(=O)Nc5c(F)cccc5F)c4)nc4ccccn34)n2)c(OC)cc1N1CCC(N2CCN(S(C)(=O)=O)CC2)CC1 | 134.446% and 100.483% | 134.446% and 126.607% | 80.3348% and 98.676% | 124.058% and 123.21% | 105.005% and 109.946% | 148.394% and 109.614%
4 | O=C(CCCCCCNC(=O)c1cnc(N(c2ccccc2)c2ccccc2)nc1)NO [RICOLINOSTAT] |  | 236.119% and 135.984% | 136.698% and 150.49% | 122.116% and 112.232% | 107.943% and 108.966% | 120.178% and 118.056%
5 | Cc1cc2c(-c3ccco3)cnc(N[C@H]3CCN(C)C[C@@H]3C(=O)NC3CCCCC3)c2[nH]c1=O [GSK791] | 46.4952% and 92.4722% | 100.727% and 114.988% | 103.348% and 100.946% | 100.095% and 111.149% | 106.466% and 102.024% | 100.388% and 101.634%
6 | N#CC1(c2ccccn2)CCN(Cc2cc(C(=O)N3CCCC3)c(=O)n3ccccc23)CC1 [MSD-M1PAM-NC] | 69.2847% and 91.5343% | 101.66% and 96.3521% | 100.616% and 90.5784% | 99.0735% and 86.6757% | 114.688% and 98.8664% | 108.691% and 97.5493%
7 | O[C@H]1CC[C@H](Nc2ncc3nc(Nc4c(F)cc(F)cc4F)n([C@H]4CCOC4)c3n2)CC1 [TANZISERTIB] | 161.464% and 97.9897% | 183.086% and 108.79% | 99.1681% and 86.9686% | 119.868% and 95.5739% | 85.5595% and 88.3572% | 111.493% and 110.437%
8 | COc1ccc(Cn2ccc3ccc(C(=O)NO)cc32)cc1 | 110.805% and 94.5904% | 117.665% and 84.3839% | 103% and 112.867% | 100.715% and 96.6587% | 150.267% and 98.5772% | 160.829% and 118.056%
9 | CC[C@@H]1CN(C(=O)NCC(F)(F)F)C[C@@H]1c1cnc2cnc3[nH]ccc3n12 [UPADACITINIB] | 147.971% and 117.189% | 96.4317% and 92.8632% | 100.634% and 104.808% | 99.9708% and 92.6952% | 103.03% and 85.909% | 77.8559% and 94.8072%
10 | CN(C)[C@H]1CN(C2CCc3cccc(F)c32)C[C@@H]1c1ccc(N2CCN(S(C)(=O)=O)CC2)cc1 (stereo not given in full) | 201.275% and 108.733% | 175.885% and 109.186% | 78.9326% and 94.0562% | 85.3871% and 90.7518% | 159.825% and 136.993% | 128.982% and 128.571%
11 | Cc1nc(-c2cn3c(n2)-c2ccc(-c4cnn(C(C)(C)C(N)=O)c4)cc2OCC3)n(C(C)C)n1 [TASELISIB] | 40.2908% and 23.1884% | 43.7188% and 27.2651% | 74.483% and 67.4564% | 68.3353% and 63.3321% | 24.4584% and 46.9606% | 18.3941% and 28.1748%
12 | CC(C)Oc1ccc(-c2c[nH]cc2CN(C)CCO)cc1 | 133.832% and 103.4% | 212.72% and 118.594% | 96.8467% and 122.861% | 101.748% and 92.8998% | 142.087% and 115.973% | 131.014% and 107.302%
13 | Cc1nc(C2CCN(C(=O)c3ccc(OC(F)(F)F)cc3N)CC2)c2ncc(N3CCN(C)CC3)cc2n1 [BAY-693] | 87.1033% and 97.7241% | 88.4972% and 107.653% | 120.305% and 115.678% | 95.3265% and 86.6757% | 107.628% and 117.814% | 129.663% and 123.258%
14 | Cn1c(=O)[nH]c2cc(N3C(=O)c4cccc5c(CCCO)ccc(c45)C3=O)ccc21 | 172.196% and 101.777% | 101.158% and 94.3617% | 119.202% and 111.104% | 123.504% and 100.955% | 78.0892% and 58.7114% | 114.692% and 105.151%
15 | Cc1noc([C@H]2C[C@@H](c3ccc(C(F)(F)F)cc3)CN(C(=O)N3CCS(=O)(=O)C3)C2)n1 [BAY-448] | 144.748% and 117.786% | 135.729% and 111.574% | 88.3285% and 80.3363% | 88.286% and 95.9184% | 117.281% and 106.792% | 86.8627% and 94.2849%
16 | COc1cc2c(cc1NS(=O)(=O)c1ccc(Br)cc1C)n(C)c(=O)n2C | 82.8669% and 66.0742% | 161.71% and 111.182% | 90.5613% and 147.551% | 87.5695% and 113.305% | 85.4589% and 143.275% | 107.386% and 104.912%
17 | CCOc1cc(N2CCC(O)CC2)ccc1Nc1ncc2c(n1)N(C)c1ccccc1C(=O)N2C | 50.6693% and 60.5891% | 44.9186% and 56.4198% | 109.771% and 116.516% | 106.608% and 109.968% | 105.657% and 158.464% | 54.5485% and 108.792%
18 | CC1=C(C#N)C(c2ccc3[nH]nc(C)c3c2)C(C#N)=C(C)N1 [BAY-474] | 97.0801% and 99.3894% | 77.9563% and 84.1183% | 98.4176% and 90.2329% | 78.5633% and 94.3878% | 114.031% and 109.602% | 118.528% and 111.578%
19 | FC(F)(F)c1ccc2c(c1)nc(-c1cccnc1)n2C1CC1 [MSD-CYP11B2-Negative-control] | 82.6005% and 103.914% | 111.8% and 104.679% | 89.0845% and 95.4893% | 78.0159% and 105.031% | 82.4588% and 96.4372% | 50.7409% and 62.2297%
20 | Cc1cnc(-c2cc(Cl)ccc2F)cc1-n1c(=O)n(CC(N)=O)c2cnccc21 [TP-008] | 46.9462% and 85.5321% | 76.2638% and 97.3434% | 94.8191% and 94.398% | 86.5351% and 93.3039% | 69.5011% and 111.741% | 79.5252% and 108.842%
21 | C[C@H](c1ccc(F)cc1)N(Cc1ccc(Cl)c(C(=O)O)c1)C(=O)c1cnc2ccccc2c1 [PF-05257137] | 171.765% and 153.146% | 140.713% and 101.643% | 104.015% and 83.2471% | 99.7446% and 91.3265% | 112.636% and 114.286% | 58.4583% and 44.0628%
22 | CN1CCN(c2ccc(-c3cccc(CN4CCOCC4)c3)cc2NC(=O)c2c[nH]c(=O)cc2C(F)(F)F)CC1 | 103.563% and 97.1406% | 155.063% and 99.7783% | 76.0385% and 85.8263% | 102.756% and 104.714% | 183.315% and 145.933% | 137.387% and 99.6548%
23 | CCCOc1ccn2c(C(C)=O)cc(-c3ccccc3S(C)(=O)=O)c2c1 | 82.358% and 82.5348% | 234.066% and 124.865% | 106.031% and 126.388% | 99.7688% and 110.084% | 138.616% and 118.389% | 149.88% and 120.685%
24 | NS(=O)(=O)c1cc(NC(=O)Cc2ccccc2)ccc1Oc1cccc(Cl)c1 [BAY-1797] | 109.148% and 118.264% | 102.589% and 110.989% | 97.444% and 106.533% | 100.538% and 94.898% | 118.794% and 140.984% | 77.9849% and 83.6245%
25 | Cc1cc2c(cc1N1C(=O)c3cccc4c(CCCO)ccc(c34)C1=O)n(C)c(=O)n2C | 57.3322% and 75.8114% | 118.076% and 83.8137% | 93.3541% and 102.286% | 93.8629% and 86.4558% | 68.0185% and 75.3826% | 71.5666% and 43.0165%
26 | CCC(=N\O)/C(C)=C/c1ccc(F)c(C)c1 [A-226] | 100.912% and 93.6554% | 132.086% and 110.405% | 109.207% and 89.6507% | 103.65% and 86.2245% | 97.0228% and 105.855% | 79.4149% and 80.7818%
